# Measured values reported in patent US6355799B1, “Substituted benzene compounds, process for their preparation, and herbicidal and defoliant compositions containing them” (ISK Americas Incorporated, priority 1997, dated 2002).
# Experiments:
# Assay type in all cases: in vivo
# [1] = tested on: velvetleaf (Abutilon theophrasti, ABUTH); assay: Pre-emerge test, greenhouse herbicide activity screening; conditions: pre-emerge, 14 days after application, rating scale 0-100
# Method in brief: (§1)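 Applied at 15–1000 g ai/ha from acetone in 187 l/ha spray volume. Post-emergence applications included 0.25% v/v non-ionic surfactant and reached plants sown 8–21 days before. Pre-emergence applications were incorporated by surface watering. Efficacy or crop damage was rated on a 0–100 scale after 14 days.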
# [2] = tested on: barnyardgrass (Echinochloa crus-galli, ECHCG); assay: as above; conditions: pre-emerge, 14 days after application, rating scale 0-100
# Method in brief: as §1
# [3] = tested on: ivyleaf morningglory (Ipomoea hederacea, IPOHE); assay: as above; conditions: pre-emerge, 14 days after application, rating scale 0-100
# Method in brief: as §1
# [4] = tested on: large crabgrass (Digitaria sanguinalis, DIGSA); assay: as above; conditions: pre-emerge, 14 days after application, rating scale 0-100
# Method in brief: as §1
# [5] = tested on: sicklepod (Cassia obtusifolia, CASOB); assay: as above; conditions: pre-emerge, 14 days after application, rating scale 0-100
# Method in brief: as §1
# [6] = tested on: lambsquarters (Chenopodium album, CHEAL); assay: as above; conditions: pre-emerge, 14 days after application, rating scale 0-100
# Method in brief: as §1
# [7] = tested on: johnsongrass (Sorghum halepense, SORHA); assay: as above; conditions: pre-emerge, 14 days after application, rating scale 0-100
# Method in brief: as §1
# [8] = tested on: green foxtail (Setaria viridis, SETVI); assay: as above; conditions: pre-emerge, 14 days after application, rating scale 0-100
# Method in brief: as §1
# [9] = tested on: velvetleaf (Abutilon theophrasti, ABUTH); assay: Post-emerge test, greenhouse herbicide activity screening; conditions: post-emerge, 14 days after application, rating scale 0-100
# Method in brief: (§2)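 Rating: 0–100 visual injury, 14 DAA. Application: acetone, 187 l/ha, 15–1000 g ai/ha, flat-fan track sprayer with nozzle 40–45 cm above soil or canopy. Post-emerge runs used 0.25% v/v surfactant on 2–3 leaf plants.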
# [10] = tested on: barnyardgrass (Echinochloa crus-galli, ECHCG); assay: as above; conditions: post-emerge, 14 days after application, rating scale 0-100
# Method in brief: as §2
# [11] = tested on: ivyleaf morningglory (Ipomoea hederacea, IPOHE); assay: as above; conditions: post-emerge, 14 days after application, rating scale 0-100
# Method in brief: as §2
# [12] = tested on: large crabgrass (Digitaria sanguinalis, DIGSA); assay: as above; conditions: post-emerge, 14 days after application, rating scale 0-100
# Method in brief: as §2
# [13] = tested on: sicklepod (Cassia obtusifolia, CASOB); assay: as above; conditions: post-emerge, 14 days after application, rating scale 0-100
# Method in brief: as §2
# [14] = tested on: lambsquarters (Chenopodium album, CHEAL); assay: as above; conditions: post-emerge, 14 days after application, rating scale 0-100
# Method in brief: as §2
# [15] = tested on: common ragweed (Ambrosia artemisizfolia L., AMBEL); assay: as above; conditions: post-emerge, 14 days after application, rating scale 0-100
# Method in brief: as §2
# [16] = tested on: johnsongrass (Sorghum halepense, SORHA); assay: as above; conditions: post-emerge, 14 days after application, rating scale 0-100
# Method in brief: as §2
# [17] = tested on: redroot pigweed (Amaranthus retroflexus, AMARE); assay: as above; conditions: post-emerge, 14 days after application
# Method in brief: as §2
# [18] = tested on: green foxtail (Setaria viridis, SETVI); assay: as above; conditions: post-emerge, 14 days after application, rating scale 0-100
# Method in brief: as §2
# [19] = tested on: field corn (Zea mays L., var. Dekalb 535, CORN); assay: Post-emerge test, crop safety; conditions: post-emerge, 14 days after application, rating scale 0-100
# Method in brief: as §1
# [20] = tested on: upland rice (Oryza sp., var. Tebonnet, RICE); assay: Post-emerge test, crop safety; conditions: post-emerge, 14 days after application, rating scale 0-100
# Method in brief: as §1
# [21] = tested on: redroot pigweed (Amaranthus retroflexus, AMARE); assay: Pre-emerge test, greenhouse herbicide activity screening; conditions: pre-emerge, 14 days after application, rating scale 0-100
# Method in brief: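 Herbicidal damage is scored 0 (none) to 100 (complete plant death) two weeks after a simulated field spray. Rates span 15–1000 g ai/ha, delivered in acetone at 187 l/ha. For post-emergence treatments, plants have 2–3 leaves and the spray carries 0.25% v/v non-ionic surfactant.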
# [22] = tested on: field corn (Zea mays L., var. Dekalb 535, CORN); assay: Pre-emerge test, crop safety; conditions: pre-emerge, 14 days after application, rating scale 0-100
# Method in brief: (§3)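 Visual ratings on a 0-100 scale (0 no damage, 100 all plants dead) were taken at 14 days after treatment. Rates of 15-1000 g ai/ha in acetone, 187 l/ha, were sprayed onto soil one day after planting (pre-emerge) or onto 2-3 leaf plants with 0.25% v/v surfactant (post-emerge).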
# [23] = tested on: upland rice (Oryza sp., var. Tebonnet, RICE); assay: Pre-emerge test, crop safety; conditions: pre-emerge, 14 days after application, rating scale 0-100
# Method in brief: as §3
compound,measurement,setting,value
CCOC(=O)C(Cl)Cc1c(OC)c(Cl)cc(F)c1-c1nn(C)c(C(F)(F)F)c1Cl (stereo not shown) [14-56],phytotoxicity rating ABUTH,[1]; 63 g ai/ha,30
same,phytotoxicity rating ABUTH,[1]; 250 g ai/ha,60
same,phytotoxicity rating ECHCG,[2]; 63 g ai/ha,0
same,phytotoxicity rating ECHCG,[2]; 250 g ai/ha,0
same,phytotoxicity rating IPOHE,[3]; 63 g ai/ha,0
same,phytotoxicity rating IPOHE,[3]; 250 g ai/ha,0
same,phytotoxicity rating DIGSA,[4]; 63 g ai/ha,30
same,phytotoxicity rating DIGSA,[4]; 250 g ai/ha,40
same,phytotoxicity rating CASOB,[5]; 63 g ai/ha,0
same,phytotoxicity rating CASOB,[5]; 250 g ai/ha,10
same,phytotoxicity rating CHEAL,[6]; 63 g ai/ha,80
same,phytotoxicity rating CHEAL,[6]; 250 g ai/ha,100
same,phytotoxicity rating SORHA,[7]; 63 g ai/ha,0
same,phytotoxicity rating SORHA,[7]; 250 g ai/ha,30
same,phytotoxicity rating SETVI,[8]; 63 g ai/ha,20
same,phytotoxicity rating SETVI,[8]; 250 g ai/ha,70
same,Post-emerge Herbicidal Activity ABUTH (phytotoxicity rating),[9]; 63 g ai/ha,70
same,Post-emerge Herbicidal Activity ABUTH (phytotoxicity rating),[9]; 250 g ai/ha,100
same,Post-emerge Herbicidal Activity ECHCG (phytotoxicity rating),[10]; 63 g ai/ha,20
same,Post-emerge Herbicidal Activity ECHCG (phytotoxicity rating),[10]; 250 g ai/ha,80
same,Post-emerge Herbicidal Activity IPOHE (phytotoxicity rating),[11]; 63 g ai/ha,100
same,Post-emerge Herbicidal Activity IPOHE (phytotoxicity rating),[11]; 250 g ai/ha,100
same,Post-emerge Herbicidal Activity DIGSA (phytotoxicity rating),[12]; 63 g ai/ha,10
same,Post-emerge Herbicidal Activity DIGSA (phytotoxicity rating),[12]; 250 g ai/ha,50
same,Post-emerge Herbicidal Activity CASOB (phytotoxicity rating),[13]; 63 g ai/ha,30
same,Post-emerge Herbicidal Activity CASOB (phytotoxicity rating),[13]; 250 g ai/ha,40
same,Post-emerge Herbicidal Activity CHEAL (phytotoxicity rating),[14]; 63 g ai/ha,99
same,Post-emerge Herbicidal Activity CHEAL (phytotoxicity rating),[14]; 250 g ai/ha,100
same,Post-emerge Herbicidal Activity AMBEL (phytotoxicity rating),[15]; 63 g ai/ha,90
same,Post-emerge Herbicidal Activity AMBEL (phytotoxicity rating),[15]; 250 g ai/ha,80
same,Post-emerge Herbicidal Activity SORHA (phytotoxicity rating),[16]; 63 g ai/ha,30
same,Post-emerge Herbicidal Activity SORHA (phytotoxicity rating),[16]; 250 g ai/ha,70
same,Post-emerge Herbicidal Activity AMARE (phytotoxicity rating),"[17]; 63 g ai/ha, rating scale 0-100 (0 no damage, 100 complete death)",100
same,Post-emerge Herbicidal Activity AMARE (phytotoxicity rating),"[17]; 250 g ai/ha, rating scale 0-100",100
same,Post-emerge Herbicidal Activity SETVI (phytotoxicity rating),[18]; 63 g ai/ha,30
same,Post-emerge Herbicidal Activity SETVI (phytotoxicity rating),[18]; 250 g ai/ha,70
same,Post-emerge Herbicidal Activity CORN (crop damage rating),[19]; 63 g ai/ha,10
same,Post-emerge Herbicidal Activity CORN (crop damage rating),[19]; 250 g ai/ha,30
same,Post-emerge Herbicidal Activity RICE (crop damage rating),[20]; 63 g ai/ha,0
same,Post-emerge Herbicidal Activity RICE (crop damage rating),[20]; 250 g ai/ha,25
same,phytotoxicity rating AMARE,[21]; 63 g ai/ha,100
same,phytotoxicity rating AMARE,[21]; 250 g ai/ha,100
same,phytotoxicity rating CORN,[22]; 63 g ai/ha,0
same,phytotoxicity rating CORN,[22]; 250 g ai/ha,0
same,phytotoxicity rating RICE,[23]; 63 g ai/ha,10
same,phytotoxicity rating RICE,[23]; 250 g ai/ha,10
